# Experimental data reported in article PMC11184554, “Nature-Inspired Gallinamides Are Potent Antischistosomal Agents: Inhibition of the Cathepsin B1 Protease Target and Binding Mode Analysis” (ACS Infectious Diseases, 2024).
# Experiments:
# [1] = system: S. mansoni newly transformed schistosomula (NTS); assay: Phenotypic screen with newly transformed schistosomula (NTS); format: cell-based
# Procedure: The same 19 gallinamides were screened for bioactivity against S. mansoni newly transformed schistosomula (NTS), the postinvasive parasite stage that feeds on host blood.[40] In this primary assay, the NTS were exposed to 1 and 10 μM compounds for 3 days, and the resulting phenotypic responses were graded from 0 through 4, i.e., the least to the most severe (Table 2 and Table S1). […] The effects were more pronounced after 72 h, and when the higher, 10 μM, compound concentration was used (Table S1). […] Also, compared to gallinamide A and its analogs, 3 has an additional N-terminal N-acetamide modification that further reduces bioactivity (Table 2).
# Phenotypic screens employed S. mansoni newly transformed schistosomula (NTS) and adults and were carried out as described previously.[18]−[20],[42] NTS were prepared by mechanically transforming infective larvae (cercariae).[40],[42] NTS (200–300 parasites) were incubated in flat-bottomed 96-well plates in 200 μL of Basch Medium 169 containing 5% (v/v) FBS, 100 U mL^–1 penicillin and 100 μg mL^–1 streptomycin (complete Basch medium)[75] at 5% CO2 and 37 °C.[76],[77] Inhibitors were added at final concentrations of 1 and 10 μM, and changes in phenotypes were observed under an inverted microscope every 24 h for up to 72 h.
# (§1) A constrained nomenclature of “descriptors”[39],[42] was used to record the multiple and dynamic changes in movement, shape, and translucence that the schistosome parasite is capable of (Table S1 for NTS and Table S3 for adults). These descriptors were then converted into an ordinal “severity score” system ranging from 0 (no effect) to 4 (maximum effect), which allows for the relative comparison of compound effects.
# SmCB1 = SmCB1 (Schistosoma mansoni, UniProt Q8MNY2, T185A/T300A); assay: SmCB1 IC50 determination with 30 min preincubation; format: biochemical, S. mansoni
# Chain of SmCB1 (Q8MNY2 87-340 T185A/T300A): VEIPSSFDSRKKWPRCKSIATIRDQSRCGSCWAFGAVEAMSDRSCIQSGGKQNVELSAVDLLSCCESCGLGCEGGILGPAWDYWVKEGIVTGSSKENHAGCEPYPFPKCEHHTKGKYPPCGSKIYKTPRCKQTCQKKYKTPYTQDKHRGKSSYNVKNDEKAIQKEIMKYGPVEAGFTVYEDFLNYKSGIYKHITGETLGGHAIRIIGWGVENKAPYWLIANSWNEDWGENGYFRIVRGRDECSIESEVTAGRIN
# Procedure: Inhibition measurements were performed in duplicate in 96-well microplates (100 μL assay volume) at 37 °C. SmCB1 (40 pM) was added to a mixture of the fluorogenic substrate Cbz–Phe–Arg–AMC (25 μM) and an inhibitor (0–100 μM) in 0.1 M sodium acetate, pH 5.5, containing 2.5 mM dithiothreitol and 0.01% (w/v) BRIJ 35. Substrate hydrolysis was monitored in an Infinite M1000 microplate reader (Tecan) at excitation and emission wavelengths of 360 and 465 nm, respectively, for up to 150 min. An observed first-order rate constant, kobs, was calculated at each inhibitor concentration by fitting the progress curve to the equation P = vi/kobs(1 – exp(−kobst)) + d where P is the product formation, t is the reaction time, vi is the initial velocity, and d is the offset. […] The second-order rate constant, k2nd, (and SE value) was determined by fitting the linear equation kobs = (k2nd[I])/(1 + [S]/Km), where [S] is the substrate concentration, [I] is the inhibitor concentration, and KM is the Michaelis–Menten constant. The KM value determined for SmCB1 was 25 μM. […] To determine IC50 values, SmCB1 (40 pM) was preincubated with the inhibitor (0–100 μM) for 30 min under assay conditions as described above, followed by the addition of the fluorogenic substrate Cbz–Phe–Arg–AMC (20 μM). Substrate hydrolysis was monitored for 30 min in a microplate reader as described above. The IC50 values were determined by nonlinear regression using GraFit software (Erithacus Software).
# [2] = system: ex vivo adult mixed sex S. mansoni; assay: Phenotypic screen with ex vivo adult schistosomes; format: cell-based; conditions: for adult severity score: scale 0 to 4
# Procedure: In the next step, the bioactive compounds gallinamide A, 1, 6, and 9 (selected for structural analyses (see below)) were phenotypically screened against adult schistosomes. Experiments were performed at 1, 2, 5, and 10 μM with ex vivo adult mixed sex S. mansoni, and the phenotypes observed over 48 h were assigned severity scores ranging from 0 to 4 (Table 3 and Table S3).
# For adult schistosomes, screens were performed in 24-well plates containing four male worms and one to two female worms per well in a final volume of 2 mL of complete Basch medium. Compounds were added at the final concentrations between 1 and 10 μM. Incubations were maintained for 48 h at 37 °C under 5% CO2. Afterward, the adult worms were collected, washed in RPMI 1640 medium, and used for soluble protein extract preparation.
# as §1
# [3] = 1 μM compound, 24 h, scale 0 (no effect) to 4 (most severe)
# [4] = 1 μM compound, 48 h, scale 0 to 4
# [5] = 1 μM compound, 72 h, scale 0 to 4
# [6] = 10 µM compound, 24 h, scale 0 to 4
# [7] = 10 µM compound, 48 h, scale 0 to 4
# [8] = 10 µM compound, 72 h, scale 0 to 4
SMILES,"schistosomula severity score [1, 3]","schistosomula severity score [1, 4]","schistosomula severity score [1, 5]","schistosomula severity score [1, 6]","schistosomula severity score [1, 7]","schistosomula severity score [1, 8]","adult phenotype descriptors ([2]; 2 h, 1 µM)","adult severity score ([2]; 2 h, 1 μM)","adult phenotype descriptors ([2]; 2 h, 2 µM)","adult severity score ([2]; 2 h, 2 μM)","adult phenotype descriptors ([2]; 2 h, 5 µM)","adult severity score ([2]; 2 h, 5 μM)","adult phenotype descriptors ([2]; 2 h, 10 µM)","adult severity score ([2]; 2 h, 10 μM)","adult phenotype descriptors ([2]; 6 h, 1 µM)","adult severity score ([2]; 6 h, 1 μM)","adult phenotype descriptors ([2]; 6 h, 2 µM)","adult severity score ([2]; 6 h, 2 μM)","adult phenotype descriptors ([2]; 6 h, 5 µM)","adult severity score ([2]; 6 h, 5 μM)",further results
CCC(C)C(C(=O)OC(CC(C)C)C(=O)NC(CC(C)C)C(=O)NC(C)C=CC(=O)N1C(=O)C=C(OC)C1CC(C)C)N(C)C (stereo not drawn) [compound 1],2,4,4,4,4,4,N,0,N,0,N,0,N,0,N,0,N,0,N,0,"schistosomula phenotype descriptors ([1]; 1 µM compound, 24 h): R, unc; IC50 (SmCB1): 92 nM; adult phenotype descriptors ([2]; 6 h, 10 µM): unc; adult severity score ([2]; 6 h, 10 μM): 1; adult phenotype descriptors ([2]; 24 h, 1 µM): N; adult severity score ([2]; 24 h, 1 μM): 0; adult phenotype descriptors ([2]; 24 h, 2 µM): N; adult severity score ([2]; 24 h, 2 μM): 0; adult phenotype descriptors ([2]; 24 h, 5 µM): N; adult severity score ([2]; 24 h, 5 μM): 0; adult severity score ([2]; 24 h, 10 μM): 4; adult phenotype descriptors ([2]; 48 h, 1 µM): N; adult severity score ([2]; 48 h, 1 μM): 0; adult phenotype descriptors ([2]; 48 h, 2 µM): unc, dark; adult severity score ([2]; 48 h, 2 μM): 2; adult phenotype descriptors ([2]; 48 h, 5 µM): unc, dark; adult severity score ([2]; 48 h, 5 μM): 2; adult severity score ([2]; 48 h, 10 μM): 4"
COC1=CC(=O)N(C(=O)/C=C/[C@H](C)NC(=O)[C@H](CC(C)C)NC(=O)[C@H](CC(C)C)OC(=O)[C@H](Cc2ccccc2)N(C)C)[C@H]1Cc1ccccc1 [compound 6],2,4,4,4,4,4,N,0,N,0,unc,1,"unc, on sides",2,N,0,N,0,unc,1,"schistosomula phenotype descriptors ([1]; 1 µM compound, 24 h): R, unc; IC50 (SmCB1): 517 nM; adult phenotype descriptors ([2]; 6 h, 10 µM): unc, on sides; adult severity score ([2]; 6 h, 10 μM): 2; adult phenotype descriptors ([2]; 24 h, 1 µM): N; adult severity score ([2]; 24 h, 1 μM): 0; adult phenotype descriptors ([2]; 24 h, 2 µM): N; adult severity score ([2]; 24 h, 2 μM): 0; adult severity score ([2]; 24 h, 5 μM): 2; adult severity score ([2]; 24 h, 10 μM): 4; adult phenotype descriptors ([2]; 48 h, 1 µM): N; adult severity score ([2]; 48 h, 1 μM): 0; adult phenotype descriptors ([2]; 48 h, 2 µM): dark; adult severity score ([2]; 48 h, 2 μM): 1; adult severity score ([2]; 48 h, 5 μM): 4; adult severity score ([2]; 48 h, 10 μM): 4"
CCC(C)C(C(=O)OC(CC(C)C)C(=O)NC(CC(C)C)C(=O)NC(C)C=CC(=O)N1C(=O)C=C(OC)C1Cc1ccccc1)N(C)C (stereo not drawn) [compound 9],1,2,4,3,4,4,N,0,N,0,unc,1,unc,1,N,0,N,0,unc,1,"schistosomula phenotype descriptors ([1]; 1 µM compound, 48 h): Dark, R; schistosomula phenotype descriptors ([1]; 10 µM compound, 24 h): Dark, R, S; adult phenotype descriptors ([2]; 6 h, 10 µM): unc, on sides; adult severity score ([2]; 6 h, 10 μM): 2; adult phenotype descriptors ([2]; 24 h, 1 µM): N; adult severity score ([2]; 24 h, 1 μM): 0; adult phenotype descriptors ([2]; 24 h, 2 µM): N; adult severity score ([2]; 24 h, 2 μM): 0; adult phenotype descriptors ([2]; 24 h, 5 µM): unc, Dark; adult severity score ([2]; 24 h, 5 μM): 2; adult severity score ([2]; 24 h, 10 μM): 4; adult phenotype descriptors ([2]; 48 h, 1 µM): N; adult severity score ([2]; 48 h, 1 μM): 0; adult phenotype descriptors ([2]; 48 h, 2 µM): unc, dark; adult severity score ([2]; 48 h, 2 μM): 2; adult severity score ([2]; 48 h, 5 μM): 4; adult severity score ([2]; 48 h, 10 μM): 4"
CC[C@H](C)[C@@H](C(=O)O[C@@H](CC(C)C)C(=O)N[C@@H](CC(C)C)C(=O)N[C@@H](C)/C=C/C(=O)N1C(=O)C=C(OC)[C@@H]1C)N(C)C [gallinamide A],1,2,4,4,4,4,N,0,N,0,N,0,N,0,N,0,N,0,N,0,"schistosomula phenotype descriptors ([1]; 1 µM compound, 48 h): Dark, R; IC50 (SmCB1): 44 nM; adult phenotype descriptors ([2]; 6 h, 10 µM): N; adult severity score ([2]; 6 h, 10 μM): 0; adult phenotype descriptors ([2]; 24 h, 1 µM): N; adult severity score ([2]; 24 h, 1 μM): 0; adult phenotype descriptors ([2]; 24 h, 2 µM): N; adult severity score ([2]; 24 h, 2 μM): 0; adult phenotype descriptors ([2]; 24 h, 5 µM): N; adult severity score ([2]; 24 h, 5 μM): 0; adult phenotype descriptors ([2]; 24 h, 10 µM): unc; adult severity score ([2]; 24 h, 10 μM): 1; adult phenotype descriptors ([2]; 48 h, 1 µM): N; adult severity score ([2]; 48 h, 1 μM): 0; adult phenotype descriptors ([2]; 48 h, 2 µM): S, dark; adult severity score ([2]; 48 h, 2 μM): 2; adult phenotype descriptors ([2]; 48 h, 5 µM): S, dark; adult severity score ([2]; 48 h, 5 μM): 2; adult severity score ([2]; 48 h, 10 μM): 3"
